Consider one compound from patent US20160199365A1, “2-Carboxamide Cycloamino Urea Derivatives in Combination with HSP90 Inhibitors for the Treatment of Proliferative Diseases” (Novartis AG, priority 2011, published 2016).

Test [1] deals with NCI-N87 tumors (human gastric carcinoma cells). The experiment in a line: NCI-N87 gastric cancer xenograft model, second experiment (Example 3). The format is in vivo, mice. The settings on record: single agent. How it is done:
Cells are harvested with trypsin (0.25% w/v)-EDTA (0.53 mM), are re-suspended in culture medium (with additives) and are counted with a Casy® system. Cell culture reagents are purchased from BioConcept (Allschwil, Switzerland). NCI-N87 tumors are established by injecting […] to 1×10^7 cells (in HBSS containing 50% v/v Matrigel) subcutaneously with a 23 Gauge needle. When tumors are established and reach between 180 and 210 mm^3, animals are randomized into treatment groups and the treatments are initiated. Compound A is formulated in NMP/PEG300/Solutol HS15/water (10:30:20:40% vol/vol) The compound is fully dissolved in NMP first and water is added immediately prior to administration to animals. […] All doses of AUY922 refer to the free base equivalent. AUY922 is administered iv at a volume of 10 ml/kg, twice a week. […] Pairwise comparisons are done using a one way ANOVA followed by Tukey's test. The level of significance of body weight change within a group between start and end of the treatment period is determined using a paired t-test. […] Calculations are performed using GraphPad Prism 4 for windows (GraphPad Software Inc.). In addition, an approximation of drug interactions is made using the method described by Clarke R., “Issues in experimental design and endpoint analysis in the study of experimental cytotoxic agents in vivo in breast cancer and other models”, Breast Cancer Res. Treat, 46, 255-78 (1997). This is applied to MV (Tumor volume).

For test [2], the system named is HGC-27 subcutaneous xenografts (human gastric carcinoma cells, PIK3CA mutation, PTEN null). The experiment in a line: HGC-27 gastric cancer xenograft model in female athymic nude mice (Example 1). The following applies: for T/C %: 12 days, day 23; for mean change of tumor volume: mean±SEM.
Procedure: Experiments are performed in female Hsd:Athymic Nude-FoxN1^nu Nude mice approximately 8-12 weeks of age at treatment start.
HGC-27 cells, which are human gastric carcinoma cells with a PIK3CA mutation (c1624G>A, p.E542K) and PTEN null, are grown in MEM culture medium containing 1% non-essential amino acid with 10% heat-inactivated FCS, and are incubated at 37° C. in a 5% CO2 humidified atmosphere.
HGC-27 tumors are established in vivo by injection 5×10^6 cells in 200 μl (100 μl PBS+100 μl Matrigel) (Cat #354234, BD Bioscience, Bedford, Mass.) subcutaneous into the right flank of the animals. The efficacy experiments are started when the tumors reach an average size of approximately 230 mm^3 (day 12 post cell injection).
Compound A is formulated in 0.5% Methylcellulose (MC). 80 mg of Compound A is added to 16 ml of 0.5% MC, then stirred/vortexed and sonicated in water bath sonicator for 1 h to obtain 5 mg/ml homogeneous suspension. 0.5% MC is used to dilute the 5 mg/ml solution to 2.5 mg/ml and 1.25 mg/ml for dosing. Compound A or vehicle is administered orally at a volume of 10 ml/kg.
Tumor volumes are measured with calipers and determined according to the formula: length×diameter^2×π/6. Antitumor activity is expressed as T/C % which is determined according to the formula: (mean change of tumor volume of treated animals/mean change of tumor volume of control animals)×100. Regressions (%) are calculated according to the formula ((mean tumor volume at end of treatment-mean tumor volume at start of treatment)/mean tumor volume at start of treatment)×100. Body weights and tumor volumes are recorded twice a week.
Where applicable, data is presented as mean±SEM. For all tests, the level of significance is set at p<0.05. For tumor volumes, comparisons between treatment groups and vehicle control group are done using one-way ANOVA followed by Dunnett's test. Tumor volumes comparisons between treatment groups are done using Kruskal-Wallis one way ANOVA post-hoc Student Newman Kuels test or Dunn's test. In the first experiment, Compound A is orally administered daily to HGC-27 subcutaneous xenografts, tumor-bearing nude mice at a dose of 12.5 mg/kg, 25 mg/kg and 50 mg/kg.
[3] abbreviates: Compound A 12.5 mg/kg p.o. once daily.
Setting [4] is: Compound A 25 mg/kg p.o. once daily.
[5] abbreviates: Compound A 50 mg/kg p.o. once daily.

As a reminder, the T/C is the ratio of treated to control. Compound `Cc1nc(NC(=O)N2CCC[C@H]2C(N)=O)sc1-c1ccnc(C(C)(C)C(F)(F)F)c1` [Compound A, (S)-Pyrrolidine-1,2-dicarboxylic acid 2-amide 1-({4-methyl-5-[2-(2,2,2-trifluoro-1,1-dimethyl-ethyl)-pyridin-4-yl]-thiazol-2-yl}-amide)] yielded a T/C in test [1] (Compound A 12.5 mg/kg orally once a day, not statistically significant) of 30.3%. The “mean change of tumor volume (mm^3±SEM)” value in test [1] (Compound A 12.5 mg/kg) is given as 114.9±43.9 mm^3; in test [1] (Compound A 50 mg/kg) it was −2.3±15.2 mm^3. In addition, in test [1] (Compound A 50 mg/kg orally once a day), the regressions was determined as 1.2%. Moreover, the T/C % was determined as 39.4% in test [2] (setting [3]), 35.5% in test [2] (setting [4]) and 7.1% in test [2] (setting [5]). Further, the “mean change of tumor volume” value in test [2] (setting [3]) is 515±85 mm^3; in test [2] (setting [4]), 465±111 mm^3; in test [2] (setting [5]), 93±77 mm^3.
